Assay results: BindingDB's records for doi:10.1016/j.bmc.2010.03.036 (Chugai Pharmaceutical, 2010)

Columns and labels:
[1] = Antagonist activity at AR in bicalutamide-resistant human LNCAP cells assessed as effect on cell proliferation after 6 days
[2] = Antagonist activity at AR in human LNCAP cells assessed as effect on cell proliferation after 6 days

Row | SMILES | IC50 [1] | IC50 [2]
1 | CC1(C)C(=O)N(c2ccc(C#N)c(C(F)(F)F)c2)C(=S)N1CCS(N)(=O)=O [2-[3-(4-Cyano-3-trifluoromethylphenyl)-5,5-dimethyl-4-oxo-2-thioxoimidazolidin-1-yl]ethanesulfonamide] | 0.079 µM | –
2 | CC1(C)C(=O)N(c2ccc(C#N)c(Cl)c2)C(=S)N1CCCS(N)(=O)=O [3-[3-(3-Chloro-4-cyanophenyl)-5,5-dimethyl-4-oxo-2-thioxoimidazolidin-1-yl]propane-1-sulfonamide] | 0.012 µM | 0.41 µM
3 | Cc1c(N2C(=O)C(C)(C)N(CCCS(N)(=O)=O)C2=S)ccc(C#N)c1C(F)(F)F [3-[3-(4-Cyano-2-methyl-3-trifluoromethylphenyl)-5,5-dimethyl-4-oxo-2-thioxoimidazolidin-1-yl]propane-1-sulfonamide] | – | 1.1 µM
4 | Cc1cc(N2C(=O)C(C)(C)N(CCCS(N)(=O)=O)C2=S)ccc1C#N [3-[3-(4-Cyano-3-methylphenyl)-5,5-dimethyl-4-oxo-2-thioxoimidazolidin-1-yl]propane-1-sulfonamide] | 0.051 µM | 0.3 µM
5 | CC1(C)C(=O)N(c2ccc(C#N)c(C(F)(F)F)c2)C(=S)N1CCCS(N)(=O)=O [3-[3-(4-Cyano-3-trifluoromethylphenyl)-5,5-dimethyl-4-oxo-2-thioxoimidazolidin-1-yl]propane-1-sulfonamide] | 0.018 µM | 0.16 µM
6 | CN(C)S(=O)(=O)CCCN1C(=S)N(c2ccc(C#N)c(C(F)(F)F)c2)C(=O)C1(C)C [3-[3-(4-Cyano-3-trifluoromethylphenyl)-5,5-dimethyl-4-oxo-2-thioxoimidazolidin-1-yl]propane-1-sulfonic aciddimethylamide] | – | 3.7 µM
7 | CNS(=O)(=O)CCCN1C(=S)N(c2ccc(C#N)c(C(F)(F)F)c2)C(=O)C1(C)C [3-[3-(4-Cyano-3-trifluoromethylphenyl)-5,5-dimethyl-4-oxo-2-thioxoimidazolidin-1-yl]propane-1-sulfonic acidmethylamide] | 0.03 µM | 0.19 µM
8 | CC1(C)C(=O)N(c2ccc(C#N)c(C(F)(F)F)c2)C(=S)N1CCCNS(N)(=O)=O [3-[3-(4-Cyano-3-trifluoromethylphenyl)-5,5-dimethyl-4-oxo-2-thioxoimidazolidin-1-yl]propylsulfamide] | 0.089 µM | 0.78 µM
9 | CC1(C)C(=O)N(c2ccc(C#N)c(C(F)(F)F)c2)C(=S)N1CCCNC(N)=O [3-[3-(4-Cyano-3-trifluoromethylphenyl)-5,5-dimethyl-4-oxo-2-thioxoimidazolidin-1-yl]propylurea] | 0.2 µM | 1.6 µM
10 | CC1(C)C(=O)N(c2ccc(C#N)c(C(F)(F)F)c2)C(=S)N1CCCCS(N)(=O)=O [4-[3-(4-Cyano-3-trifluoromethylphenyl)-5,5-dimethyl-4-oxo-2-thioxoimidazolidin-1-yl]butane-1-sulfonamide] | 0.11 µM | 1.4 µM
11 | CC1(C)C(=O)N(c2ccc(C#N)c(C(F)(F)F)c2)C(=S)N1CCCC(N)=O [4-[3-(4-Cyano-3-trifluoromethylphenyl)-5,5-dimethyl-4-oxo-2-thioxoimidazolidin-1-yl]butyramide] | 0.055 µM | 0.4 µM
12 | CC1(C)C(=O)N(c2ccc(C#N)c(C(F)(F)F)c2)C(=S)N1CCCC(=O)O [4-[3-(4-cyano-3-trifluoromethylphenyl)-5,5-dimethyl-4-oxo-2-thioxoimidazolidin-1-yl]butyric acid] | 0.4 µM | 2 µM
